US6605639B1, “Ligands of nuclear receptor” (Nuclear Receptor Research, Ltd., priority 1998, dated 2003)
Where “and” joins values, the source holds several entries; their conditions need not be identical. Equal entries are not always repeated.

Legend:
[1] = system: patients suffered from noninsulin dependent diabetes (type II); test: Phase II clinical test; format: in vivo, human; conditions: for Fasting blood glucose level, Decrease / Serum total cholesterol level, Decrease / Fasting blood glucose level / Serum total cholesterol level: 360 mg/day; for Fasting blood glucose level / Serum total cholesterol level: n = 30, Mean ± SE; for Boredom No, number of patients / Boredom Yes, number of patients: total 15; for Neuralgia No, number of patients / Neuralgia Yes, number of patients: total 16; for Feebleness No, number of patients / Feebleness Yes, number of patients: total 25
Procedure: A phase II clinical test of Compound-6 involving 30 patients suffered from noninsulin dependent diabetes (type II) was carried out. Compound-6 was administered in a daily dose of 6 mg/kg (i.e., administration of two tablets weighing 60 mg after each meal). The administration was continued for 12 weeks.
The facts clarified by this test are as follows.
The 30 patients with type II diabetes were inquired about thirsty and evaluated in 4 grades, namely, (+++) very strongly thirsty; (++) strongly thirsty; (+) thirsty; and (−) not thirsty. […] The treatment ratio amounted to 100%.

[2] = system: rats with adjuvant arthritis; test: Therapeutic effect on rat adjuvant arthritis; format: in vivo; conditions: for Inflammation score (5 grades, 1 normal to 5 disabled by swelling in both hind legs): 7 times, day 7
Procedure: Rats with arthritis employed in Experiment 1 were individuals which suffered from serious arthritis caused by the injection of an adjuvant 45 days ago and thus crawled on forelegs since they could not bend hind legs. Drug effects were evaluated by observing walking, observation with the naked eye of the severity of inflammation in hind legs and the volume of swelling in legs. To 19 SD male rats (weighing about 300 g), Freund's […] adjuvant containing dead tubercle bacillus Aoyama B strain was subcutaneously injected into the tail root to induce arthritis in hind legs. Compound-6 was suspended in a tragacanth gum solution and orally administered at a ratio of 0.5 ml/100 g body weight. Compound-6 was administered to 3 groups including the high-dose model (HM; 50 mg/kg), the medium-dose model (MM; 25 mg/kg) and the low-dose model (LM; 10 mg/kg). Administration was made once a day in morning continuously 7 times. During this period, the hind leg volume was measured at the initiation of the experiment and 2, 4 and 7 days thereafter. The volume change was calculated by referring the volume at the initiation of the experiment as to 100%. On the 7th day, the inflammation conditions in hind legs were evaluated in 5 grades with the naked eye.
Immediately after administration, the three Compound-6 groups were combined and divided again depending on the occurrence of arthritis (i.e., positive and negative groups). Then the data were compared with the data of the control group.

white rabbits = test: Inhibition of arteriosclerosis in white rabbits fed high fat feed; conditions: 14 weeks
Procedure: Thus, a high fat feed was prepared by adding 10% of hardened coconut oil, 2% of cholesterol, 0.5% of bovine bile powder and 0.04% or 0.01% of ascochlorin to a powdery marketed standard white rabbit feed and molded the mixture into pellets. Separately, another high fat feed for the control group was prepared without using ascochlorin.
Twenty-four white rabbits weighing about 2 kg were divided into 4 groups at random. One of these groups was regarded as the control group, while the remaining 3 groups were respectively regarded as the clofibrate group, the ascochlorin 0.01% group and the ascochlorin 0.04% group at random. Then the experiment was carried out for 14 weeks.

db/db mice = test: Long-term oral administration to hereditary obese diabetic mice (pancreas function protecting effect); format: in vivo, mouse
From the text: It has been already supported by the results of several experiments that oral administration of the compounds of the present invention enhances peripheral insulin sensitivity and ameliorates metabolic disorders in db/db mice. It is, however, noteworthy that the compounds of the present invention exert an effect in retaining the function pancreatic synthesis of insulin over a long period, which is defective in diabetes. This effect was clearly indicated by serum insulin level and pathologic observation on pancreas of db/db mice to which Compound-14 had been administered over about 1 year. […] Moreover, Compound-14 ameliorated urinary protein throughout the experimental period. […] Namely, there arose a conversion of non insulin-dependent diabetes mellitus into insulin-dependent diabetes mellitus,analogous to human type II diabetes. Even body weight was reduced to a level similar to that of normal litter after the 40th week, the db/db mice lacking leptin receptor underwent overeating and food energy, which could not be anabolized due to the poverty of insulin, was excreted from the body in a large amount.
Since they lack hereditarily leptin […], db/db mice have no appetite control even at satiety. As a result, they suffer from hyperinsulinemia due to overeating and serious obesity, thereby undergoing the onset of diabetes. The compounds of the present invention were orally administered to db/db mice for 40 weeks (from 11 to 51 weeks after birth) (FIG. 2).
As obesity attained a maximum, insulin requirements exceeded insulin production levels. Thus, pancreatic Langerhans' islet β-cells having insulin depot granules therein were mostly degranulated and there arose insulin depot poverty. The pancreatic Langerhans' islet β-cells having been working severely to produce insulin in excess gradually fatigued. […] From 23rd week after birth, it became impossible to anabolize all of the food energy taken in excess due to the insufficient function of insulin, which induced a decrease in body weight. The food energy which could not be anabolized was excreted as urinary glucose. As a result, the urinary glucose increased with a decrease in the blood insulin level. […] Namely, there arose the conversion of noninsulin-dependent diabetes mellitus into insulin-dependent diabetes mellitus in clinical case of humans. […] However, Compound-14 has no function of restoring leptin receptor and thus exerts no effect on the process of the induction of obesity by hyperinsulinemia due to overeating.
Since pancreatic Langerhans' islet β-cells are of key importance in various aspects of diabetes, the ability of the compound of the present invention to maintain the function of these cells over a long period of time, is very important in terms of the treatment and prevention of diabetes.

[3] = three dose groups combined, total 14

Procedure for bovine serum: To recover such a compound in a free state from plasma, it is required to add a large amount of a water-miscible organic solvent (methanol, ethanol, acetone, acetonitrile, etc.) to the plasma, acidify the mixture (pH 3.0 or below) and then allow it to stand at room temperature for about 1 week. […] Ascochlorin, Compound-6 or Compound-14 is dissolved in a small amount of an organic solvent and added to serum.
At definite points, the serum was sampled and divided into 2 portions. Ten times as much acetonitrile was added to one of these portions and the mixture was centrifuged. Then the free compound in the serum was determined. To the other portion, 10 times as much acetonitrile containing 1% of acetic acid was added. After allowing to stand at room temperature for 1 week, the mixture was centrifuged and the free compound was determined (FIG. 10).

COc1c(Cl)c(C)c(C=O)c(O)c1C/C=C(C)/C=C/[C@@]1(C)[C@H](C)CCC(=O)[C@@H]1C [Compound-6, 4-O-methylASC]
Fasting blood glucose level, Decrease ([1]; 4th week): 12.37%
Serum total cholesterol level, Decrease ([1]; 4th week): 16.6%
Fasting blood glucose level ([1]; 4th week): 165 ± 4.3 mg/dL
Serum total cholesterol level ([1]; 4th week): 265 ± 4.4 mg/dL
Boredom No, number of patients ([1]; 4th week): 5
Boredom Yes, number of patients ([1]; 4th week): 10
Neuralgia No, number of patients ([1]; 4th week): 9
Neuralgia Yes, number of patients ([1]; 4th week): 7
Feebleness No, number of patients ([1]; 4th week): 10
Feebleness Yes, number of patients ([1]; 4th week): 15
Fasting blood glucose level, Decrease ([1]; 8th week): 15.45%
Serum total cholesterol level, Decrease ([1]; 8th week): 24.3%
Fasting blood glucose level ([1]; 8th week): 159 ± 2.4 mg/dL
Serum total cholesterol level ([1]; 8th week): 240 ± 4.4 mg/dL
Boredom No, number of patients ([1]; 8th week): 13
Boredom Yes, number of patients ([1]; 8th week): 2
Neuralgia No, number of patients ([1]; 8th week): 10
Neuralgia Yes, number of patients ([1]; 8th week): 6
Feebleness No, number of patients ([1]; 8th week): 19
Feebleness Yes, number of patients ([1]; 8th week): 6
Fasting blood glucose level, Decrease ([1]; 12th week): 18.05%
Serum total cholesterol level, Decrease ([1]; 12th week): 27.2%
Fasting blood glucose level ([1]; 12th week): 154 ± 4.4 mg/dL
Serum total cholesterol level ([1]; 12th week): 231 ± 4.4 mg/dL
Boredom No, number of patients ([1]; 12th week): 15
Boredom Yes, number of patients ([1]; 12th week): 0
Neuralgia No, number of patients ([1]; 12th week): 14
Neuralgia Yes, number of patients ([1]; 12th week): 2
Feebleness No, number of patients ([1]; 12th week): 24
Feebleness Yes, number of patients ([1]; 12th week): 1
thirst, treatment ratio ([1]; 30 patients, 12 weeks): 100%
glucose tolerance (50 g of glucose orally loaded, fasting) ([1]; compared with the data before the administration): significantly ameliorated
blood pressure of patients with hypertension (7) or borderline hypertension (17) ([1]; human, in vivo): significantly lowered
lowering the serum neutral fat level ([1]; human, in vivo): little effect
urinary glucose, urine collected for 24 hours ([1]; human, in vivo): significantly reduced
Inflammation score (5 grades, 1 normal to 5 disabled by swelling in both hind legs) ([2]; HM group, 50 mg/kg oral once a day): 2.2
Inflammation score (5 grades, 1 normal to 5 disabled by swelling in both hind legs) ([2]; LM group, 10 mg/kg oral once a day): 3.2
Inflammation score (5 grades, 1 normal to 5 disabled by swelling in both hind legs) ([2]; MM group, 25 mg/kg oral once a day): 2.8
walking of rats disabled by swelling in joint ([2]; after 1 week of oral administration): could walk again
Arthritis (+), number of rats [2, 3]: 7
Arthritis (−), number of rats [2, 3]: 7

3-[5-[l(R),2(S),6(S)-trimethyl-3-oxocylohexyl]-3-methyl-2,4-pentadienyl]-2,4-dihydroxy-5-chloro-6-methylbenzaldehyde [Compound-1]
lesions of obstruction in the coronary artery (white rabbits; 0.01% and 0.04% in high fat feed): significantly alleviated
survival until the completion of the experiment (white rabbits; 0.01% and 0.04% in high fat feed, 6 animals per group): all individuals survived
increase in the serum total cholesterol level (white rabbits; high fat feed): would not suppress increase
free compound in serum (bovine serum): scarcely detected

CC(/C=C/[C@@]1(C)[C@H](C)CCC(=O)[C@@H]1C)=C\Cc1c(O)c(C=O)c(C)c(Cl)c1OCC(=O)O [Compound-14, 4-O-carboxymethylASC]
urinary glucose compared with the control group (db/db mice; 0.1% in feed, oral, 40 weeks (11 to 51 weeks after birth)): scarcely excreted into urine and 1/100
blood glucose level (db/db mice; 0.1% in feed, oral, about 40 weeks after birth): almost comparable to normal litter
function of pancreatic β-cells (insulin productivity) (db/db mice; long-term oral administration, about 1 year): completely sustained over 1 year
urinary protein (db/db mice; throughout the experimental period): ameliorated
